Assay in all cases: inhibition of tumour cell growth, NCI panel, 48 h
For assay [1], the system named is IGROV1 ovarian.
The test system of assay [2] is UACC-257 melanoma.
The test system of assay [3] is SK-MEL-28 melanoma.
In assay [4] the test system is MDA-MB-231 breast.
In assay [5] the test system is EKVX NSCLC.
Assay [6] concerns SR leukemia.
Assay [7] concerns UACC-62 melanoma.
Assay [8] has as its system DU-145 prostate.
In assay [9] the test system is M14 melanoma.
Assay [10] has as its system HS 578T breast.
Assay [11] has as its system COLO 205 colon.
Assay [12] concerns SF-539 CNS.

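Test compounds were applied to cells in 96-well plates for 48 hours at 5 doses. TGI marks complete inhibition of growth.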 Where only a bound is given, the exact number is not on record here.

Turning to `N#Cc1c(-c2ccc(Cl)cc2Cl)nc2[nH][nH]c(=S)n2c1=O`, the TGI in assay [1], in assay [2], in assay [3], in assay [4], in assay [5] and in assay [6] was more than 100 µM throughout. Moreover, the TGI in assay [7], in assay [8], in assay [9], in [10] and in assay [11] was more than 100 µM in each case.

Turning to `Cc1cc(S(=O)(=O)Nc2n[nH]c(N)n2)c(SCC(=O)O)cc1Cl`, the TGI in [1], in [2], in [3], in assay [5], in [6] and in assay [8] was more than 10 µM throughout. The TGI in [12], in assay [9], in assay [10] and in assay [11] was more than 10 µM each time.

For the compound `COC(CNC(=O)C(C)NC(=O)/C=C/c1ccccc1)OC` (centres undefined), the TGI in assay [1], in assay [2], in assay [4], in [5], in assay [6] and in assay [7] was more than 100 µM throughout. The TGI in [8], in [12], in assay [9], in [10] and in [11] was more than 100 µM in each case.

As to `Cn1ccc(C(=O)NCCN(CCNC(=O)c2ccn(C)c(=O)c2O)CCNC(=O)c2cccc(=O)n2O)c(O)c1=O`, the TGI in [1], in assay [2], in [3], in assay [4], in assay [6] and in assay [7] was more than 100 µM each time. The TGI in [8], in [12], in assay [9], in [10] and in assay [11] was more than 100 µM in each case.

`Cc1nn(-c2ccccc2)c2c1C(c1ccc(Cl)cc1)NC(=S)N2` (centres undefined): the TGI in assay [1] is 28.1 µM; in assay [2], more than 100 µM; in assay [4] it was 51.2 µM; in assay [5], 90.8 µM; in [6] it was more than 100 µM; in assay [7], 60.5 µM. Also, the TGI was more than 100 µM in assay [8]; 37.4 µM in assay [12]; more than 100 µM in assay [9]; more than 100 µM in assay [10]; 31.2 µM in assay [11].

Consider `COc1ccc(P2(=S)OC(C)(C)C(C)(C)O2)cc1`, for which the TGI in assay [1], in [2], in assay [3], in assay [4], in assay [5] and in [6] was more than 100 µM in each case. Besides, the TGI in assay [7], in assay [8], in assay [12], in assay [9] and in [10] was more than 100 µM each time.

Take `COc1cc2c(C)cc(O)cc2c2cc(O)c(C)cc12`: the TGI came out at 29 µM in assay [1]; 22.8 µM in [2]; 19.2 µM in [4]; 22.6 µM in assay [5]; 6.18 µM in assay [6]; 22.3 µM in assay [7]. The TGI in [8] turned out to be 20.9 µM; in assay [12] it was 19.1 µM; in [9] it was 6.67 µM; in assay [10], 53.8 µM; in assay [11], 19.6 µM.

In the case of `CC(O)C1(CNc2cc(Cl)nc(N)n2)CCC1` (centres undefined), the TGI in assay [1], in [2], in assay [3], in assay [4], in assay [5] and in assay [6] was more than 100 µM in each case. The TGI in [7], in [8], in [12] and in assay [10] was more than 100 µM in each case.

As for `Nc1ncnc2c1ncn2[C@@H]1C[C@@H]1CO`, the TGI in assay [2], in assay [4], in assay [5], in assay [6], in [12] and in assay [10] was more than 100 µM throughout.

In the case of `COC(=O)c1ccccc1/C=C1\Cc2ccc(C)c(C)c2C1=O`, the TGI in [1], in assay [2], in assay [3], in assay [5], in assay [6] and in [7] was more than 100 µM each time. Besides, the TGI in [8], in assay [12], in assay [9], in assay [10] and in assay [11] was more than 100 µM throughout.

With `O=c1c(/C=C/c2c(O)ccc3ccccc23)nnc2sc(-c3cccc(Br)c3)nn12`, the TGI in assay [1] was 15.8 µM; in [2], more than 100 µM; in assay [3], more than 100 µM; in assay [5] it was 98.1 µM; in [6] it was 41.1 µM; in assay [7], 68.6 µM. For the same compound, the TGI was 45.3 µM in [8]; more than 100 µM in [12]; 66.4 µM in assay [9]; more than 100 µM in assay [10]; more than 100 µM in assay [11].

`CC#CCOC(=O)c1ccccc1OC(C)=O`: the TGI in assay [1], in assay [2], in assay [4], in assay [5], in [6] and in [7] was more than 100 µM each time. Besides, the TGI in assay [8], in assay [12], in assay [9], in assay [10] and in assay [11] was more than 100 µM each time.

In the case of `Cc1c(N=Nc2ccc(Cl)cc2)c(-c2ccccc2)n(C2OC(CO)C(O)C(O)C2O)c(=S)c1C#N` (centres undefined), the TGI in assay [1] was 29.5 µM; in [2], 54 µM; in assay [3] it was 28.7 µM; in assay [4], 39.2 µM; in [6] it was more than 100 µM; in assay [7], 26.1 µM. Further, the TGI is 39.4 µM in [8]; 41 µM in assay [12]; 31.2 µM in [9]; 51.6 µM in assay [10]; 37.7 µM in [11].

For `COc1ccc(/C=C2\N=C(SC)N(CN3CCOCC3)C2=O)cc1`, the TGI in assay [1], in assay [3], in assay [4], in [5], in assay [6] and in assay [7] was more than 100 µM in each case. Besides, the TGI in assay [8], in assay [9], in assay [10] and in assay [11] was more than 100 µM in each case.

On to `COC(=O)/C=C(\C)CC(O)/C=C(\C)CCC=C(C)C` (centres undefined), for which the TGI in [1] is more than 100 µM; in [2], more than 100 µM; in assay [3] it was more than 100 µM; in assay [4], more than 100 µM; in assay [5], more than 100 µM; in assay [6], 68.2 µM. The TGI in [7], in [12], in assay [9], in assay [10] and in assay [11] was more than 100 µM each time.

`O=C(O)[C@@H]1CCS(=O)(=O)N1`: the TGI in assay [1], in assay [2], in assay [3], in assay [4], in [5] and in assay [6] was more than 100 µM throughout. Moreover, the TGI in [7], in [8], in assay [12], in assay [9] and in [11] was more than 100 µM in each case.

Turning to `O=C1C(c2c(O)[nH]c3ccc(F)cc23)=Nc2ccccc21`, the TGI in assay [1] was more than 100 µM; in assay [2], more than 100 µM; in assay [3], more than 100 µM; in assay [4], 54.6 µM; in [5], more than 100 µM; in assay [6] it was more than 100 µM. Besides, the TGI in assay [7], in assay [8], in assay [9], in [10] and in assay [11] was more than 100 µM each time.

On to `CC(C)C(=O)OCC1OC(n2c(Br)nc3c(=O)[nH]c(N)nc32)C(OC(=O)C(C)C)C1OC(=O)C(C)C` (centres undefined), for which the TGI in assay [2], in assay [4], in assay [5], in [6], in assay [7] and in assay [8] was more than 100 µM in each case. The TGI in assay [9], in assay [10] and in assay [11] was more than 100 µM in each case.

`CC(C)=CC[C@]12CCN[C@H]1N(S(=O)(=O)c1ccccc1)c1ccccc12`: the TGI in assay [1] was 30.8 µM; in [2], 34.8 µM; in assay [3], 31.5 µM; in [4], 58.5 µM; in assay [5] it was 21.3 µM; in [6], 51 µM. In addition, the TGI in assay [7] is 29.2 µM; in [8], more than 100 µM; in assay [12], 36.9 µM; in [10], 44.5 µM; in assay [11], 41 µM.

Values taken from PubChem BioAssay (NCI).
